{"source": "patent US7276491B2", "about": "“Anticoagulant and fibrinolytic therapy using p38 MAP kinase inhibitors” (Boehringer Ingelheim Pharmaceuticals, Inc., priority 2002, dated 2007)", "tested_on": "LPS-induced activation of coagulation, fibrinolysis and the vascular endothelium", "assay": "LPS study: randomized, double-blind, placebo-controlled human endotoxemia experiment", "type": "in vivo", "key": {"[1]": {"settings": "healthy male volunteers, high dose (600 mg oral) 3 h before LPS 4 ng/kg i.v."}}, "data": [{"compound": "Cc1ccc(-n2nc(C(C)(C)C)cc2NC(=O)Nc2ccc(OCCN3CCOCC3)c3ccccc23)cc1", "note": "[formula (III), 1-[3-tert-butyl-1-p-tolyl-1H-pyrazol-5-yl]-3-[4-(2-morpholin-4-yl-ethoxy)naphthalen-1-yl]-urea]", "values": [{"measurement": "LPS-elicited increase in plasma levels of sE-selectin (endothelial cell activation)", "setting": "[1]", "value": "attenuated"}, {"measurement": "LPS-elicited increase in plasma levels of vWF (endothelial cell activation)", "setting": "[1]", "value": "attenuated"}, {"measurement": "LPS-induced coagulation activation (increase in plasma prothrombin fragment F1+2 concentrations)", "setting": "healthy male volunteers, high end dosing (600 mg oral) 3 h before LPS 4 ng/kg i.v., vs placebo", "value": "inhibited LPS-induced coagulation activation, both delaying and diminishing the increase in plasma F1+2 concentrations"}, {"measurement": "activation of the fibrinolytic system", "setting": "healthy male volunteers, oral dose 3 h before LPS 4 ng/kg i.v., tPA, PAI-1, PAPc assayed", "value": "even stronger inhibitory effect"}, {"measurement": "IL-6 concentrations", "setting": "subjects treated during low grade endotoxemia (LPS i.v.)", "value": "reduced IL-6 concentrations"}]}]}
